Test results reported in patent US6914045B2, “Glycopeptide antibiotics” (Wyeth Holdings Corporation, priority 2001, dated 2005).
In brackets after ≈: the same amount, converted by molar mass.

Legend:
Experiment in all cases: in vitro antibacterial evaluation, MIC by broth dilution
Format in all cases: cell-based
Enterococcus sp. = conditions: broth dilution, 18 hours at 35° C.
In short: (§1)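 Test organisms, which included recent clinical isolates resistant to methicillin, penicillin and/or vancomycin, were inoculated at 5×10^5 CFU/mL into Muller-Hinton II […] containing antibiotic at 64-0.06 μg/mL. Minimum inhibitory concentrations were then read as the lowest level inhibiting growth.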

Staphylococcus sp. = conditions: broth dilution, 18 hours at 35° C.
In short: as §1

Streptococcus sp. = conditions: broth dilution, 18 hours at 35° C.
In short: as §1

Escherichia coli = conditions: 18 hours at 35° C.

MIC Enterococcus avium (GC 4558) (Enterococcus sp.): 128 µg/mL (≈ 90.4 µM) | MIC Enterococcus faecalis (ATCC 29212) (Enterococcus sp.): >128 µg/mL | MIC Enterococcus faecalis (GC 2242) (Enterococcus sp.): >128 µg/mL | MIC Enterococcus faecalis (GC 2691) (Enterococcus sp.): >128 µg/mL | MIC Enterococcus faecalis (GC 3059) (Enterococcus sp.): >128 µg/mL | MIC Enterococcus faecalis (GC 4552) (Enterococcus sp.): >128 µg/mL | MIC Enterococcus faecalis (GC 4553) (Enterococcus sp.): >128 µg/mL | MIC Enterococcus faecalis (GC 4554) (Enterococcus sp.): >128 µg/mL | MIC Enterococcus faecalis (GC 6189) (Enterococcus sp.): >128 µg/mL | MIC Enterococcus faecium (GC 2243) (Enterococcus sp.): >128 µg/mL | MIC Enterococcus faecium (GC 4556) (Enterococcus sp.): >128 µg/mL | MIC Enterococcus faecium (GC 4557) (Enterococcus sp.): >128 µg/mL | MIC Enterococcus faecalis (ATCC 29212) (Enterococcus sp.; inoculum 5×10^5 CFU/mL, strain ATCC 29212): >128 µg/mL | MIC Enterococcus faecalis (GC 2242) (Enterococcus sp.; inoculum 5×10^5 CFU/mL, strain GC 2242): >128 µg/mL | MIC Enterococcus faecium (GC 2243) (Enterococcus sp.; inoculum 5×10^5 CFU/mL, strain GC 2243): >128 µg/mL | MIC Enterococcus faecalis (GC 2691) (Enterococcus sp.; inoculum 5×10^5 CFU/mL, strain GC 2691): >128 µg/mL | MIC Enterococcus faecalis (GC 3059) (Enterococcus sp.; inoculum 5×10^5 CFU/mL, strain GC 3059): >128 µg/mL | MIC Enterococcus faecalis (GC 4552) (Enterococcus sp.; inoculum 5×10^5 CFU/mL, strain GC 4552): >128 µg/mL | MIC Enterococcus faecalis (GC 4553) (Enterococcus sp.; inoculum 5×10^5 CFU/mL, strain GC 4553): >128 µg/mL | MIC Enterococcus faecalis (GC 4554) (Enterococcus sp.; inoculum 5×10^5 CFU/mL, strain GC 4554): >128 µg/mL | MIC Enterococcus faecium (GC 4556) (Enterococcus sp.; inoculum 5×10^5 CFU/mL, strain GC 4556): >128 µg/mL | MIC Enterococcus faecium (GC 4557) (Enterococcus sp.; inoculum 5×10^5 CFU/mL, strain GC 4557): >128 µg/mL | MIC Enterococcus avium (GC 4558) (Enterococcus sp.; inoculum 5×10^5 CFU/mL, strain GC 4558): 128 µg/mL (≈ 90.4 µM) | MIC Enterococcus faecalis (GC 6189) (Enterococcus sp.; inoculum 5×10^5 CFU/mL, strain GC 6189): >128 µg/mL | MIC Coagulase Negative Staphylococcus (GC 4547) (Staphylococcus sp.): >128 µg/mL | MIC Coagulase Negative Staphylococcus (GC 4548) (Staphylococcus sp.): >128 µg/mL | MIC Coagulase Negative Staphylococcus (GC 4549) (Staphylococcus sp.): >128 µg/mL | MIC Coagulase Negative Staphylococcus (GC 4551) (Staphylococcus sp.): >128 µg/mL | MIC Coagulase Negative Staphylococcus (GC 6257) (Staphylococcus sp.): >128 µg/mL | MIC Staphylococcus aureus (ATCC 29213) (Staphylococcus sp.): >128 µg/mL | MIC Staphylococcus aureus (GC 1131) (Staphylococcus sp.): >128 µg/mL | MIC Staphylococcus aureus (GC 3051) (Staphylococcus sp.): >128 µg/mL | MIC Staphylococcus aureus (GC 3053) (Staphylococcus sp.): >128 µg/mL | MIC Staphylococcus aureus (GC 4541) (Staphylococcus sp.): >128 µg/mL | MIC Staphylococcus aureus (GC 4542) (Staphylococcus sp.): >128 µg/mL | MIC Staphylococcus aureus (GC 4544) (Staphylococcus sp.): >128 µg/mL | MIC Staphylococcus aureus (GC 4545) (Staphylococcus sp.): >128 µg/mL | MIC Staphylococcus aureus-SMITH (GC 4543) (Staphylococcus sp.): >128 µg/mL | MIC Staphylococcus aureus (ATCC 29213) (Staphylococcus sp.; strain ATCC 29213): >128 µg/mL | MIC Staphylococcus aureus (GC 1131) (Staphylococcus sp.; strain GC 1131): >128 µg/mL | MIC Staphylococcus aureus (GC 3051) (Staphylococcus sp.; strain GC 3051): >128 µg/mL | MIC Staphylococcus aureus (GC 3053) (Staphylococcus sp.; strain GC 3053): >128 µg/mL | MIC Staphylococcus aureus (GC 4541) (Staphylococcus sp.; strain GC 4541): >128 µg/mL | MIC Staphylococcus aureus (GC 4542) (Staphylococcus sp.; strain GC 4542): >128 µg/mL | MIC Staphylococcus aureus-SMITH (GC 4543) (Staphylococcus sp.; strain GC 4543): >128 µg/mL | MIC Staphylococcus aureus (GC 4544) (Staphylococcus sp.; strain GC 4544): >128 µg/mL | MIC Staphylococcus aureus (GC 4545) (Staphylococcus sp.; strain GC 4545): >128 µg/mL | MIC Coagulase Negative Staphylococcus (GC 4547) (Staphylococcus sp.; strain GC 4547): >128 µg/mL | MIC Coagulase Negative Staphylococcus (GC 4548) (Staphylococcus sp.; strain GC 4548): >128 µg/mL | MIC Coagulase Negative Staphylococcus (GC 4549) (Staphylococcus sp.; strain GC 4549): >128 µg/mL | MIC Coagulase Negative Staphylococcus (GC 4551) (Staphylococcus sp.; strain GC 4551): >128 µg/mL | MIC Coagulase Negative Staphylococcus (GC 6257) (Staphylococcus sp.; strain GC 6257): >128 µg/mL | MIC Streptococcus agalactiae (GC 4564) (Streptococcus sp.): >128 µg/mL | MIC Streptococcus pneumoniae (ATCC 6301) (Streptococcus sp.): >128 µg/mL | MIC Streptococcus pneumoniae (GC 1894) (Streptococcus sp.): >128 µg/mL | MIC Streptococcus pneumoniae (GC 4565) (Streptococcus sp.): >128 µg/mL | MIC Streptococcus pyogenes (GC 4563) (Streptococcus sp.): >128 µg/mL | MIC Streptococcus pneumoniae (ATCC 6301) (Streptococcus sp.; inoculum 5×10^5 CFU/mL, strain ATCC 6301): >128 µg/mL | MIC Streptococcus pneumoniae (GC 1894) (Streptococcus sp.; inoculum 5×10^5 CFU/mL, strain GC 1894): >128 µg/mL | MIC Streptococcus pyogenes (GC 4563) (Streptococcus sp.; inoculum 5×10^5 CFU/mL, strain GC 4563): >128 µg/mL | MIC Streptococcus agalactiae (GC 4564) (Streptococcus sp.; inoculum 5×10^5 CFU/mL, strain GC 4564): >128 µg/mL | MIC Streptococcus pneumoniae (GC 4565) (Streptococcus sp.; inoculum 5×10^5 CFU/mL, strain GC 4565): >128 µg/mL | MIC Escherichia coli (ATCC 25922) (Escherichia coli): >128 µg/mL | MIC Escherichia coli (GC 4559) (Escherichia coli): >128 µg/mL | MIC Escherichia coli (GC 4560) (Escherichia coli): >128 µg/mL
SMILES: CC(c1ccccc1)C1NC(=O)CNC(=O)C(CO)NC(=O)C(C(O)C2CNC(=N)N2C2OC(CO)C(O)C3OC(C)(C)OC32)NC(=O)C(C(O)C2CNC(=N)N2)NC(=O)C(Cc2ccc(OC3OC(CO)C(OC4OC(CO)C(O)C5OC(C)(C)OC45)C4OC(C)(C)OC34)cc2)NC1=O (stereo not shown) [Example 229a]
MIC Staphylococcus haemolyticus (GC 4546) (Staphylococcus sp.): >128 µg/mL | MIC Staphylococcus haemolyticus (GC 4546) (Staphylococcus sp.; strain GC 4546): >128 µg/mL
